Reference: patent US11766470B2, “Manufacture, formulation and dosing of apraglutide” (VectivBio AG, priority 2020, dated 2023)
Square brackets hold non-standard residues; d marks the D form. Peptide text beside a SMILES is read from it. ξ: configuration not given here. Ile(3ξ) = CCC(C)[C@H](N)C(=O)O; Thr(3ξ) = CC(O)[C@H](N)C(=O)O; Nle = CCCC[C@H](N)C(=O)O

Test system: patients with SBS-IF
Experiment: Phase 2 placebo-controlled crossover trial in SBS-IF patients (Example 5): urine output, urine sodium, PS volume, oral fluid intake, hydration parameters, plasma L-citrulline, body composition
Assay type: in vivo, human
Settings: for Fluid composite effect (increase urine production + reduction PS volume + reduction oral fluid intake): post-hoc
Protocol: The following non-limiting example describes results from a Phase 2 clinical trial in which subjects with SBS-IF were treated with the apraglutide formulations of the present disclosure. This Phase 2 trial investigated the safety and efficacy of 5 and 10 mg apraglutide in patients with SBS-IF.
Eight adult patients with SBS-IF were treated with apraglutide compositions of the present disclosure according to Table 6. Briefly, patients with SBS-IF were administered 5 mg apraglutide of the present disclosure or placebo once a week for four weeks. The patients were then administered 10 mg apraglutide of the present disclosure once a week for four weeks. Additionally, there was a washout period of 6-10 weeks between treatments.
The trial described in Example 5 was a double-blind, crossover, randomized, placebo-controlled, phase 2 trial followed by an additional treatment period in an open-label regimen. Eight adult patients (aged ≥18 to ≤80 years) with SBS-IF were enrolled in the trial. Patient eligibility was assessed during a screening visit. The main inclusion criteria were: Patients with SBS secondary to surgical resection of the small bowel with a jejuno- or ileostomy, at least 6 months since last bowel resection, a fecal output of at least 1500 g/day as recorded within the last 18 months, and PS-infusions≥3 times per week for ≥12 months according to the patient's medical record. Patients were excluded, if they had clinical signs of activity in inflammatory bowel disease, a history of cancer within ≤5 years or an inadequate hepatic, kidney, or heart function. Patients were also excluded, if they had received native GLP-2 or a GLP-2 analogue within the last 3 months.
The procedures during each treatment period were consistent.
Efficacy assessments were performed for each treatment period of 29 days. Patients received a paper diary for recording PS volume administration, urine collections and oral fluid intakes at specific time points. Patients performed home 48-hour urine collections at baseline (day −2 to 1), immediately after first treatment injection (day 1 to 3), and at the end of the treatment period (day 27-29, […] after the fourth administration of the trial drug). Urine was collected by the patient in a urine container with volume markings and 48-hour urine volumes were reported in the diary. After completing the 48-hour collection, patients transferred approximately 100 mL of urine from the container to a sample which was delivered at the next patient visit. The amount of sodium excreted per 48 hours was then calculated as the concentration of sodium in the sample multiplied by the total volume of urine collected. During each urine collection, weekly PS volume and content and daily oral fluid intake were kept constant. Since they were kept constant, increases in urine volume were a sign of increased fluid absorption. […] Patients were to adhere to their drinking menu during each urine collection and the concomitant 48-hour oral fluid intake was reported in the diary during each urine collection.
On day 20-22, patients were informed to record their spontaneous oral fluid intake during 48 hours. This measurement was included to investigate whether increased intestinal absorption was associated with a decrease in their spontaneous oral fluid intake.
Between day 4 and 24, PS volume reductions were allowed if deemed clinically necessary by the investigator. […] PS volume reductions were assessed during day 20-22. Patients returned to their baseline PS volume and content during the end of the treatment urine collection (day 27-29). Concomitant medications including proton-pump inhibitors, loperamide, and opiates were kept unchanged and stable throughout the trial. If necessary, adjustments could be made in the drinking menu and prescribed PS volume and content between treatment periods based on discussions between the patient and the investigator.
Body weight was measured using a levelled platform scale. […]

[1] = 5 mg vs placebo, Part A+B, end of treatment
[2] = 5 mg vs placebo, Part A, day 1-3 after first injection
[3] = 5 mg vs placebo, Part A, day 20-22
[4] = 5 mg vs placebo, Part A, day 27-29
[5] = 5 mg vs placebo, Part A, end of treatment
[6] = 10 mg vs placebo, Part A+B, day 1-3 after first injection
[7] = 10 mg vs placebo, Part A+B, day 20-22
[8] = 10 mg vs placebo, Part A+B, day 27-29
[9] = 10 mg vs placebo, Part A+B, end of treatment

CCCC[C@H](NC(=O)[C@H](CCC(=O)O)NC(=O)[C@H](CC(=O)O)NC(=O)[C@H](CO)NC(=O)[C@H](Cc1ccccc1)NC(=O)[C@H](CO)NC(=O)CNC(=O)[C@H](CC(=O)O)NC(=O)CNC(=O)[C@@H](N)Cc1c[nH]cn1)C(=O)N[C@H](Cc1ccccc1)C(=O)N[C@H](C(=O)N[C@H](C(=O)N[C@@H](CC(C)C)C(=O)N[C@@H](CC(=O)O)C(=O)N[C@@H](CC(C)C)C(=O)N[C@@H](CC(C)C)C(=O)N[C@@H](C)C(=O)N[C@@H](C)C(=O)N[C@@H](CCCNC(=N)N)C(=O)N[C@@H](CC(=O)O)C(=O)N[C@@H](Cc1ccccc1)C(=O)N[C@H](C(=O)N[C@@H](CC(N)=O)C(=O)N[C@@H](Cc1c[nH]c2ccccc12)C(=O)N[C@@H](CC(C)C)C(=O)N[C@H](C(=O)N[C@@H](CCC(N)=O)C(=O)N[C@H](C(=O)N[C@@H](CCCCN)C(=O)N[C@H](C(=O)N[C@H](C(=O)N[C@@H](CC(=O)O)C(N)=O)C(C)O)C(C)CC)C(C)O)C(C)CC)C(C)CC)C(C)CC)C(C)O (stereo partly drawn) [apraglutide, L-histidyl-glycyl-L-aspartyl-glycyl-L-seryl-L-phenylalanyl-L-seryl-L-aspartyl-L-glutamyl-L-norleucyl-D-phenylalanyl-L-threonyl-Lisoleucyl-L-leucyl-L-aspartyl-L-leucyl-L-leucyl-L-alanyl-L-alanyl-L-arginyl-L-aspartyl-L-phenylalanyl-L-isoleucyl-L-asparaginyl-Ltryptophanyl-L-leucyl-L-isoleucyl-L-glutaminyl-L-threonyl-L-lysyl-L-isoleucyl-L-threonyl-Laspartic acid amide] (H-HGDGSFSDE[Nle][dF][Thr(3ξ)][Ile(3ξ)]LDLLAARDF[Ile(3ξ)]NWL[Ile(3ξ)]Q[Thr(3ξ)]K[Ile(3ξ)][Thr(3ξ)]D-NH2)
Relative body weight, adjusted mean change from baseline [1]: 3 (0 to 6); % | Relative bone mineral content, adjusted mean change from baseline [1]: 0 (−3 to 3); % | Relative fat body mass, adjusted mean change from baseline [1]: 10 (1 to 18); % | Relative lean body mass, adjusted mean change from baseline [1]: 2 (−5 to 9); % | Relative plasma L-citrulline, adjusted mean change from baseline [1]: 65 (15 to 115); % | Urea, adjusted mean change from baseline [1]: −0.9 (−2.4 to 0.6); mmol/L | Absolute urine output, adjusted mean change from baseline [2]: −48 (−696 to 601); mL/day | Relative urine output, adjusted mean change from baseline [2]: 5 (−38 to 48); % | Urine sodium excretion (%), adjusted mean change from baseline [2]: 64 (−306 to 433); % | Urine sodium excretion, adjusted mean change from baseline [2]: 3 (−146 to 152); mmol/day | PS volume, adjusted mean change from baseline [3]: −94 (−344 to 156); P = .356 mL/day | Relative PS volume, adjusted mean change from baseline [3]: −13 (−41 to 15); P = .276% | Relative oral fluid intake, adjusted mean change from baseline [3]: −9 (−18 to 1); P = .068% | Absolute urine output, adjusted mean change from baseline [4]: 714 mL/day | Relative urine output, adjusted mean change from baseline [4]: 49% | Urine sodium excretion (%), adjusted mean change from baseline [4]: 189 (−350 to 729); P = .270% | Urine sodium excretion, adjusted mean change from baseline [4]: 66 (−69 to 201); P = .171 mmol/day | Body weight, adjusted mean change from baseline [5]: 1.9 (−0.8 to 4.5); kg | Bone mineral content, adjusted mean change from baseline [5]: −4 (−132 to 123); g | Fat body mass, adjusted mean change from baseline [5]: 1.74 (−0.36 to 3.83); kg | Lean body mass, adjusted mean change from baseline [5]: 0.49 (−4.65 to 5.64); kg | Plasma L-citrulline, adjusted mean change from baseline [5]: 17.7 (−6.3 to 41.7); μmol/L | Relative body weight, adjusted mean change from baseline [5]: 3 (−1 to 7); % | Relative bone mineral content, adjusted mean change from baseline [5]: 0 (−6 to 6); % | Relative fat body mass, adjusted mean change from baseline [5]: 9 (−5 to 24); % | Relative lean body mass, adjusted mean change from baseline [5]: 2 (−11 to 15); % | Relative plasma L-citrulline, adjusted mean change from baseline [5]: 66 (−13 to 145); % | Fluid composite effect (increase urine production + reduction PS volume + reduction oral fluid intake) (5 mg vs placebo, Part A+B): 1,036 mL/day | Absolute urine output, adjusted mean change from baseline [6]: −64 (−500 to 372); mL/day | Relative urine output, adjusted mean change from baseline [6]: −6 (−37 to 24); % | Urine sodium excretion (%), adjusted mean change from baseline [6]: 22 ( −75 to 119); % | Urine sodium excretion, adjusted mean change from baseline [6]: 3 (−17 to 22); mmol/day | Relative PS volume, adjusted mean change from baseline [7]: −28 (−51 to −4); % | Relative oral fluid intake, adjusted mean change from baseline [7]: −15 (−25 to −5); % | Absolute urine output, adjusted mean change from baseline [8]: 795 (195 to 1,394); mL/day | Relative urine output, adjusted mean change from baseline [8]: 34 (−4 to 71); % | Urine sodium excretion (%), adjusted mean change from baseline [8]: 432 ( −87 to 951); % | Urine sodium excretion, adjusted mean change from baseline [8]: 88 (20 to 156); mmol/day | Albumin, adjusted mean change from baseline [9]: 1.0 (−0.9 to 2.9); g/L | Body weight, adjusted mean change from baseline [9]: 1.3 (−0.6 to 3.2); kg | Bone mineral content, adjusted mean change from baseline [9]: 8 (−64 to 81); g | CO2 total, adjusted mean change from baseline [9]: 1.3 (−1.1 to 3.7); mmol/L | Creatinine, adjusted mean change from baseline [9]: −5.1 (−22.1 to 11.9); umol/L | Fat body mass, adjusted mean change from baseline [9]: 0.33 (−1.20 to 1.85); kg | Hematocrit, adjusted mean change from baseline [9]: 0.2 (−0.7 to 1.0); vol/fr | Lean body mass, adjusted mean change from baseline [9]: 0.76 (−2.47 to 3.99); kg | Plasma L-citrulline, adjusted mean change from baseline [9]: 14.0 (−2.3 to 30.3); μmol/L | Protein, adjusted mean change from baseline [9]: −0.7 (−4.7 to 3.3); g/L | Relative body weight, adjusted mean change from baseline [9]: 2 (−1 to 5); % | Relative bone mineral content, adjusted mean change from baseline [9]: 0 (−3 to 3); % | Relative fat body mass, adjusted mean change from baseline [9]: 2 (−7 to 11); % | Relative lean body mass, adjusted mean change from baseline [9]: 2 (−6 to 9); % | Relative plasma L-citrulline, adjusted mean change from baseline [9]: 42 (−10 to 94); % | Urea, adjusted mean change from baseline [9]: −0.6 (−2.2 to 1.0); mmol/L | Fluid composite effect (increase urine production + reduction PS volume + reduction oral fluid intake) (10 mg vs placebo, Part A+B): 1,630 mL/day
